{"source": "patent US20080009546A1", "about": "(Chevron U.S.A. Inc., priority 2005, published 2008)", "key": {"NMDA receptor [1]": {"tested_on": "NMDA receptor", "test": "[3H]MK-801 binding assay, NMDA receptors in guinea pig brain membranes", "conditions": "for Relative affinity: compared to that of Memantine; for Ki: guinea pig brain membrane preparation (Table 29), read-out: Ki", "experimental": "Hartley guinea pigs were sacrificed, and their brains were quickly removed and weighed. The brains then were homogenized in 50 mM Tris HCl buffer, pH 7.7, using a Polytron homogenizer. The homogenate was centrifuged at 40,000×g for 15 min, rehomogenized, and centrifuged again. The final pellet was resuspended in Tris-HCl, pH 7.7, at a final concentration of 6.67 mg original wet weight of tissue/ml. […] The samples were then filtered through glass fiber filters on a Tomtec cell harvester. The filters were washed 3 times with 3 ml of cold buffer. Filters were dried overnight and counted next day on a Wallac Betaplate Reader.\nThe binding experiments were conducted as follows. […] For each compound, graphs were prepared containing individual competition curves obtained for that compound. IC50 values and Hill coefficients were calculated using the program Prism. Ki values were calculated using the Chang Prusoff transformation: Ki=IC50/(1+L/Kd)\nwhere L is radioligand concentration and Kd is the binding affinity of the radioligand, as determined previously by saturation analysis. […] In each experiment, one standard compound was simultaneously run on each 96 well plate."}, "NMDA receptor [2]": {"tested_on": "NMDA receptor", "test": "Whole-cell voltage-clamp recordings of NMDA evoked currents in hypocretin neurons (hypothalamic slices)", "type": "cell-based, mouse", "conditions": "for inhibition of the peak amplitude of NMDA evoked currents: bath application, -60 mV, mean±SEM"}, "[3]": {"tested_on": "primary neurons from rat cerebral cortex", "test": "NMDA-induced LDH release assay in primary cortical neurons (neuroprotection)", "type": "cell-based", "conditions": "Rattus norvegicus, Primary neuron; two experiments; 300 uM NMDA + 50 μM glycine 15 minutes, LDH after 24 hours; read-out: average EC50 (±SD), NMDA-induced LDH release", "experimental": "The neuroprotective properties of drugs have been studied in vitro, using neurons cultured from cortex, cerebellum or retina. […] Neurotoxicity is determined in this assay by measuring lactate dehydrogenase (LDH), a method which is simple, accurate and reproducible. We conducted pilot studies to test if poly-lysine-coated plates would be suitable as a matrix upon which to plate fetal neurons, compared to astrocyte-coated plates. We also compared the use of growth medium to neurobasal medium supplemented with B27 in the pilot experiments. The concentrations of NMDA (300-500 μM), glycine (10-50 μM), and memantine (10-100 μM) were varied, and optimum concentrations and times determined from these pilot studies were then chosen for the main study. The assay is described below.\nFetal rat neocortical cells were cultured on a mouse astroglial feeder layer. To obtain mouse astroglial cells for the feeder layer, cortices were harvested from 1-day old Swiss Webster mice (Charles River, Hollister, Calif.) according to the procedure described by Rose et al (1993). After dissecting cortices in ice-cold dissecting medium, they were minced and incubated in 0.09% trypsin in media stock for 1 hr, followed by resuspension in growth medium containing 10% equine serum and 10% fetal bovine serum. A single-cell suspension was obtained by triturating through fire-bored glass pipettes, and the resulting cell suspension was plated at a density of 0.5-0.75 hemispheres/24-well plate/9.6 ml, with 0.4 ml/well. Plates were incubated in a humidified incubator at 37° C., 5% CO2. Astroglial cells become confluent in about 2-3 weeks, at which time these cultures are ready to be used as feeder layers upon which neuronal cultures can be plated. Neuronal cells were obtained from gestational Sprague-Dawley rats E16-E18, using a similar dissection procedure. Rat embryos were dissected to obtain cortical tissue, which was plated as a single-cell suspension at a density of 1.4 hemispheres/24-well plate/9.6 ml, with 0.4 ml/well. These cells were plated on the existing astroglial feeder layer, and were incubated at 37° C., 5% CO2. After 5 days in culture, cytosine arabinoside (10 μM) was added to the wells to inhibit glial cell proliferation, and after 24 hours, the medium was replaced with fresh growth medium. Cells were fed with fresh growth medium every 2 days, until the experiments were performed. For coating plates with poly-lysine, we used poly-d-lysine hydrobromide (Sigma Cat # P7280) at a concentration of 0.1 mg/ml to coat each well using a minimum volume of 0.2 ml/well. After coating for 5 minutes, the solution was aspirated and wells were rinsed thoroughly with sterile tissue culture grade water. After drying for 2 hours, plates were ready for use. Neuronal cultures were plated onto poly-lysine-coated plates at the same density as above. For the pilot study, some of the cultures were fed with 1:1 ratio of growth medium: neurobasal medium (GIBCO)+B-27 supplement (2%), while the rest of the cultures were fed with growth medium alone (Losi et al., 2006). For the main study, we used astroglial feeder layers to plate the neuronal cultures, and used a mix (1:1) of growth medium with neurobasal medium+B-27 supplement for feeding the cultures.\nAfter 11-14 days in culture, neuronal cells were confluent and experiments were performed. Cells were washed twice using sterile Locke's buffer (154 mM NaCl, 5.6 mM KCl, 2.3 mM CaCl2, 3.6 mM NaHCO3, 5.5 mM D-glucose, 5 mM HEPES, pH 7.4), and then exposed to the various treatment compounds. […] After 15 minutes, cultures were washed twice and incubated overnight in media stock. After 24 hours, supernatants and lysates were collected to measure LDH activity. LDH activity was measured by the reduction of NAD, which was utilized in the stoichiometric conversion of a tetrazolium dye using a kit (Sigma TOX-7). Supernatants were removed from the wells and centrifuged before LDH measurements. The adherent cells were lysed to obtain total LDH. […]"}, "C57/BL6 male mice [4]": {"tested_on": "C57/BL6 male mice", "conditions": "for # of deaths / # of extensions: 6 mice"}, "C57/BL6 male mice [5]": {"tested_on": "C57/BL6 male mice", "test": "Pentylenetetrazol (PTZ)-induced seizure/death model", "type": "in vivo, mouse", "conditions": "for # mice with L3 seizure / # mice with L4 seizure / # of deaths within 30 min: 6 mice; for Time to death: mice that died within 30 min", "experimental": "Although the protection against death is the key endpoint, other effects of the compounds on PTZ-induced seizures were also assessed using multiple parameters. For the mice that did die within the 30 minute observation window, the time of death was also compared. […] The seizure occurrence rate, onset time and number of level 3 (L3) seizure (repetitive seizures but the animal can still stand) and level 4 (L4) seizure (repetitive seizures and the animal loses righting) are also analyzed. The MDT compound (30 mg/kg) treated groups show a certain degree of improvement compared to control. No data from MK801 or memantine were included because the seizures occurring under these treatments are totally different from the control or MDT injected groups due to side effects (“high jumping”)."}, "C57/BL6 male mice [6]": {"tested_on": "C57/BL6 male mice", "test": "Rotarod test (balance and coordination, side effects)", "experimental": "The side effects of the compounds was primarily evaluated using the rotarod test, which mainly assesses the balancing and coordination of mice. The comparisons were made on fall time of the mice between the first measure (pre-treatment) and second measure taken 20 min after the drug/vehicle injection in the same group (paired t-test). […] Comparisons of the rotatod fall times after drug/vehicle dosing were made between drug treatment and control groups (unpaired t-test)."}}, "note": "Like-named read-outs stand apart in the source and are kept apart here.", "data": [{"smiles": "NC12CC3C4CC5CC3C(C1)C(C5)C4C2", "note": "[MDT-3]", "values": [{"measurement": "Relative affinity", "setting": "NMDA receptor [1]", "result": 0.021}, {"measurement": "Ki", "setting": "NMDA receptor [1]", "result": "34.6 ± 3.7", "unit": "µM"}, {"measurement": "inhibition of the peak amplitude of NMDA evoked currents", "setting": "NMDA receptor [2]; 10 μM", "result": "did not produce inhibition"}, {"measurement": "inhibition of the peak amplitude of NMDA evoked currents", "setting": "NMDA receptor [2]; 100 μM", "result": "did not produce inhibition"}]}, {"smiles": "CC12CC3(N)CC4C1CC1CC2C(N)(C3)C4(C)C1", "note": "(stereo not drawn) [MDT-9, 1,6-dimethyl-2,4-diaminodiamantane]", "values": [{"measurement": "Relative affinity", "setting": "NMDA receptor [1]", "result": 0.032}, {"measurement": "Ki", "setting": "NMDA receptor [1]", "result": "22.5 ± 0.9", "unit": "µM"}, {"measurement": "inhibition of the peak amplitude of NMDA evoked currents", "setting": "NMDA receptor [2]; 10 μM", "result": "13.2±9", "unit": "%"}, {"measurement": "inhibition of the peak amplitude of NMDA evoked currents", "setting": "NMDA receptor [2]; 100 μM", "result": "15.2±4.8", "unit": "%"}]}, {"smiles": "CC12CC3(N)CC4C5CC(CC41)CC2C5C3", "note": "[MDT-22, 1-methyl-9-aminodiamantane]", "values": [{"measurement": "EC50", "setting": "[3]", "result": "56.5 ± 14.6", "unit": "µM"}, {"measurement": "Extension rate", "setting": "C57/BL6 male mice [4]; 10 mg/kg i.p.", "result": 1.00}, {"measurement": "Mortality rate", "setting": "C57/BL6 male mice [4]; 10 mg/kg i.p.", "result": 0.50}, {"measurement": "# of deaths", "setting": "C57/BL6 male mice [4]; 10 mg/kg i.p.", "result": 3}, {"measurement": "# of extensions", "setting": "C57/BL6 male mice [4]; 10 mg/kg i.p.", "result": 6}, {"measurement": "Extension rate", "setting": "C57/BL6 male mice [4]; 30 mg/kg i.p.", "result": 0.83}, {"measurement": "Mortality rate", "setting": "C57/BL6 male mice [4]; 30 mg/kg i.p.", "result": 0.33}, {"measurement": "# of deaths", "setting": "C57/BL6 male mice [4]; 30 mg/kg i.p.", "result": 2}, {"measurement": "# of extensions", "setting": "C57/BL6 male mice [4]; 30 mg/kg i.p.", "result": 5}, {"measurement": "MES-induced death", "setting": "C57/BL6 male mice [4]; 10 and 30 mg/kg i.p., mice", "result": "dose dependent reduction in MES-induced death"}, {"measurement": "inhibition of the peak amplitude of NMDA evoked currents", "setting": "NMDA receptor [2]; 10 μM", "result": "19±3.1", "unit": "%"}, {"measurement": "inhibition of the peak amplitude of NMDA evoked currents", "setting": "NMDA receptor [2]; 100 μM", "result": "45±12.1", "unit": "%"}, {"measurement": "reversibility of inhibition of NMDA evoked currents upon washout", "setting": "NMDA receptor [2]; washout of the compound", "result": "reversible"}, {"measurement": "# L3 per mouse", "setting": "C57/BL6 male mice [5]; 10 mg/kg i.p.", "result": "2.00 ± 0.58"}, {"measurement": "# L4 per mouse", "setting": "C57/BL6 male mice [5]; 10 mg/kg i.p.", "result": "3.85 ± 2.28"}, {"measurement": "L3 onset time", "setting": "C57/BL6 male mice [5]; 10 mg/kg i.p.", "result": "2.80 ± 1.00", "unit": "min"}, {"measurement": "L3 seizure rate", "setting": "C57/BL6 male mice [5]; 10 mg/kg i.p.", "result": 0.50}, {"measurement": "L4 onset time", "setting": "C57/BL6 male mice [5]; 10 mg/kg i.p.", "result": "7.90 ± 1.70", "unit": "min"}, {"measurement": "L4 seizure rate", "setting": "C57/BL6 male mice [5]; 10 mg/kg i.p.", "result": 1.00}, {"measurement": "Mortality rate", "setting": "C57/BL6 male mice [5]; 10 mg/kg i.p.", "result": 1.00}, {"measurement": "# mice with L3 seizure", "setting": "C57/BL6 male mice [5]; 10 mg/kg i.p.", "result": 3}, {"measurement": "# mice with L4 seizure", "setting": "C57/BL6 male mice [5]; 10 mg/kg i.p.", "result": 6}, {"measurement": "# of deaths within 30 min", "setting": "C57/BL6 male mice [5]; 10 mg/kg i.p., PTZ 100 mg/kg", "result": 6}, {"measurement": "Time to death", "setting": "C57/BL6 male mice [5]; 10 mg/kg i.p.", "result": "9.60 ± 1.80", "unit": "min"}, {"measurement": "# L3 per mouse", "setting": "C57/BL6 male mice [5]; 30 mg/kg i.p.", "result": "1.67 ± 0.50"}, {"measurement": "# L4 per mouse", "setting": "C57/BL6 male mice [5]; 30 mg/kg i.p.", "result": "1.17 ± 0.19"}, {"measurement": "L3 onset time", "setting": "C57/BL6 male mice [5]; 30 mg/kg i.p.", "result": "5.10 ± 2.30", "unit": "min"}, {"measurement": "L3 seizure rate", "setting": "C57/BL6 male mice [5]; 30 mg/kg i.p.", "result": 1.00}, {"measurement": "L4 onset time", "setting": "C57/BL6 male mice [5]; 30 mg/kg i.p.", "result": "10.20 ± 3.00", "unit": "min"}, {"measurement": "L4 seizure rate", "setting": "C57/BL6 male mice [5]; 30 mg/kg i.p.", "result": 1.00}, {"measurement": "Mortality rate", "setting": "C57/BL6 male mice [5]; 30 mg/kg i.p.", "result": 0.67}, {"measurement": "# mice with L3 seizure", "setting": "C57/BL6 male mice [5]; 30 mg/kg i.p.", "result": 6}, {"measurement": "# mice with L4 seizure", "setting": "C57/BL6 male mice [5]; 30 mg/kg i.p.", "result": 6}, {"measurement": "# of deaths within 30 min", "setting": "C57/BL6 male mice [5]; 30 mg/kg i.p., PTZ 100 mg/kg", "result": 4}, {"measurement": "Time to death", "setting": "C57/BL6 male mice [5]; 30 mg/kg i.p.", "result": "7.70 ± 2.10", "unit": "min"}, {"measurement": "PTZ-induced death", "setting": "C57/BL6 male mice [5]; 10 and 30 mg/kg i.p., PTZ 100 mg/kg, 30 min observation", "result": "a certain reduction in PTZ-induced death"}, {"measurement": "Fall Time", "setting": "C57/BL6 male mice [6]; after, 20 min after 10 mg/kg i.p.", "result": "44.58 ± 4.58", "unit": "min"}, {"measurement": "Fall Time", "setting": "C57/BL6 male mice [6]; after, 20 min after 30 mg/kg i.p.", "result": "44.93 ± 5.45", "unit": "min"}, {"measurement": "Fall Time", "setting": "C57/BL6 male mice [6]; before (pre-treatment), 10 mg/kg group", "result": "33.56 ± 3.91", "unit": "min"}, {"measurement": "Fall Time", "setting": "C57/BL6 male mice [6]; before (pre-treatment), 30 mg/kg group", "result": "45.03 ± 6.02", "unit": "min"}]}]}
